Test results reported in a compilation of properties of binary mixtures (doi:10.1016/j.molliq.2014.08.031).

Assay: xn = mol fraction of the nth substance listed
Conditions: 101 kPa

CCCC[n+]1ccn(C)c1.CS(=O)(=O)[O-] + O
Conditions | electrical conductivity [S/m] | viscosity [mPa·s]
313.15 K, x2 = 0.5596 | – | 26.8
313.15 K, x2 = 0.6542 | – | 17.83
313.15 K, x2 = 0.7015 | – | 14.43
313.15 K, x2 = 0.704 | 1.07 | –
313.15 K, x2 = 0.7495 | – | 11.11
313.15 K, x2 = 0.785 | 1.89 | –
313.15 K, x2 = 0.796 | 1.98 | –
313.15 K, x2 = 0.8016 | – | 8.17
313.15 K, x2 = 0.8521 | – | 5.48
313.15 K, x2 = 0.861 | 3.55 | –
313.15 K, x2 = 0.9254 | – | 2.67
313.15 K, x2 = 0.929 | 5.27 | –
313.15 K, x2 = 0.9503 | – | 1.854
313.15 K, x2 = 0.951 | 5.76 | –
313.15 K, x2 = 0.968 | 5.4 | –
313.15 K, x2 = 0.975 | – | 1.148
314.15 K, x1 = 0.004 | 1.61 | –
314.15 K, x1 = 0.008 | 2.86 | –
314.15 K, x1 = 0.019 | 4.58 | –
314.15 K, x2 = 0.704 | 1.1 | –
314.15 K, x2 = 0.785 | 1.96 | –
314.15 K, x2 = 0.796 | 2.04 | –
314.15 K, x2 = 0.861 | 3.71 | –
314.15 K, x2 = 0.929 | 5.42 | –
314.15 K, x2 = 0.951 | 5.97 | –
314.15 K, x2 = 0.968 | 5.53 | –
315.15 K, x1 = 0.004 | 1.64 | –
315.15 K, x1 = 0.008 | 2.91 | –
315.15 K, x1 = 0.019 | 4.65 | –
315.15 K, x2 = 0.704 | 1.14 | –
315.15 K, x2 = 0.785 | 2.02 | –
315.15 K, x2 = 0.796 | 2.11 | –
315.15 K, x2 = 0.861 | 3.75 | –
315.15 K, x2 = 0.892 | 4.58 | –
315.15 K, x2 = 0.929 | 5.54 | –
315.15 K, x2 = 0.951 | 6.11 | –
316.15 K, x1 = 0.004 | 1.67 | –
316.15 K, x1 = 0.008 | 2.97 | –
316.15 K, x1 = 0.019 | 4.73 | –
316.15 K, x2 = 0.704 | 1.18 | –
316.15 K, x2 = 0.796 | 2.17 | –
316.15 K, x2 = 0.861 | 3.84 | –
316.15 K, x2 = 0.892 | 4.75 | –
316.15 K, x2 = 0.929 | 5.63 | –
316.15 K, x2 = 0.968 | 5.71 | –
317.15 K, x1 = 0.008 | 3 | –
317.15 K, x1 = 0.019 | 4.82 | –
317.15 K, x2 = 0.704 | 1.22 | –
317.15 K, x2 = 0.785 | 2.1 | –
317.15 K, x2 = 0.796 | 2.22 | –
317.15 K, x2 = 0.861 | 3.94 | –
317.15 K, x2 = 0.892 | 4.86 | –
317.15 K, x2 = 0.929 | 5.78 | –
318.15 K, x1 = 0.004 | 1.72 | –
318.15 K, x1 = 0.008 | 3.06 | –
318.15 K, x1 = 0.019 | 4.92 | –
318.15 K, x2 = 0.704 | 1.27 | –
318.15 K, x2 = 0.785 | 2.15 | –
318.15 K, x2 = 0.796 | 2.29 | –
318.15 K, x2 = 0.861 | 4.05 | –
318.15 K, x2 = 0.892 | 4.99 | –
318.15 K, x2 = 0.951 | 6.37 | –
318.15 K, x2 = 0.968 | 5.94 | –
319.15 K, x1 = 0.004 | 1.76 | –
319.15 K, x1 = 0.008 | 3.11 | –
319.15 K, x1 = 0.019 | 5.07 | –
319.15 K, x2 = 0.785 | 2.21 | –
319.15 K, x2 = 0.796 | 2.35 | –
319.15 K, x2 = 0.892 | 5.12 | –
319.15 K, x2 = 0.929 | 6.06 | –
319.15 K, x2 = 0.951 | 6.73 | –
320.15 K, x1 = 0.008 | 3.17 | –
320.15 K, x2 = 0.785 | 2.28 | –
320.15 K, x2 = 0.796 | 2.4 | –
320.15 K, x2 = 0.861 | 4.25 | –
320.15 K, x2 = 0.929 | 6.2 | –
320.15 K, x2 = 0.951 | 6.7 | –
321.15 K, x1 = 0.004 | 1.82 | –
321.15 K, x1 = 0.008 | 3.21 | –
321.15 K, x1 = 0.019 | 5.2 | –
321.15 K, x2 = 0.704 | 1.39 | –
321.15 K, x2 = 0.785 | 2.36 | –
321.15 K, x2 = 0.861 | 4.38 | –
321.15 K, x2 = 0.892 | 5.35 | –
321.15 K, x2 = 0.929 | 6.32 | –
321.15 K, x2 = 0.951 | 6.78 | –
322.15 K, x1 = 0.004 | 1.85 | –
322.15 K, x1 = 0.008 | 3.28 | –
322.15 K, x1 = 0.019 | 5.28 | –
322.15 K, x2 = 0.785 | 2.44 | –
322.15 K, x2 = 0.861 | 4.47 | –
322.15 K, x2 = 0.951 | 6.94 | –
322.15 K, x2 = 0.968 | 6.41 | –
323.15 K, x1 = 0.004 | 1.88 | –
323.15 K, x1 = 0.008 | 3.33 | –
323.15 K, x1 = 0.019 | 5.4 | –
323.15 K, x2 = 0.5596 | – | 19
323.15 K, x2 = 0.6542 | – | 12.84
323.15 K, x2 = 0.7015 | – | 10.57
323.15 K, x2 = 0.704 | 1.49 | –
323.15 K, x2 = 0.7495 | – | 8.22
323.15 K, x2 = 0.796 | 2.62 | –
323.15 K, x2 = 0.8521 | – | 4.18
323.15 K, x2 = 0.861 | 4.6 | –
323.15 K, x2 = 0.892 | 5.62 | –
323.15 K, x2 = 0.9004 | – | 2.87
323.15 K, x2 = 0.9254 | – | 2.13
323.15 K, x2 = 0.929 | 6.51 | –
323.15 K, x2 = 0.968 | 6.56 | –
323.15 K, x2 = 0.975 | – | 0.939
324.15 K, x2 = 0.704 | 1.54 | –
324.15 K, x2 = 0.785 | 2.57 | –
324.15 K, x2 = 0.796 | 2.68 | –
324.15 K, x2 = 0.861 | 4.7 | –
324.15 K, x2 = 0.929 | 6.65 | –
324.15 K, x2 = 0.951 | 7.19 | –
324.15 K, x2 = 0.968 | 6.6 | –
325.15 K, x1 = 0.004 | 1.94 | –
325.15 K, x2 = 0.785 | 2.63 | –
325.15 K, x2 = 0.861 | 4.82 | –
325.15 K, x2 = 0.892 | 5.85 | –
325.15 K, x2 = 0.951 | 7.31 | –
325.15 K, x2 = 0.968 | 6.74 | –
326.15 K, x1 = 0.008 | 3.43 | –
326.15 K, x1 = 0.019 | 5.63 | –
326.15 K, x2 = 0.704 | 1.63 | –
326.15 K, x2 = 0.785 | 2.7 | –
326.15 K, x2 = 0.796 | 2.83 | –
326.15 K, x2 = 0.861 | 4.9 | –
326.15 K, x2 = 0.892 | 5.98 | –
327.15 K, x1 = 0.004 | 1.99 | –
327.15 K, x1 = 0.008 | 3.54 | –
327.15 K, x1 = 0.019 | 5.55 | –
327.15 K, x2 = 0.785 | 2.75 | –
327.15 K, x2 = 0.796 | 2.9 | –
327.15 K, x2 = 0.892 | 6.11 | –
327.15 K, x2 = 0.968 | 6.87 | –
328.15 K, x1 = 0.004 | 2.01 | –
328.15 K, x1 = 0.008 | 3.6 | –
328.15 K, x2 = 0.704 | 1.74 | –
328.15 K, x2 = 0.785 | 2.83 | –
